Results from ChEMBL document CHEMBL1201862, “PubChem BioAssay data set” (2004).
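Tested at 5 concentrations; 48 h exposure; 96-well plates; endpoints linearly interpolated, else capped at highest concentration. GI50 is the concentration that inhibits growth by half.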 The source made the active and inactive calls. Cut-off read from the data, not from the text of the source: active = GI50 up to about 1.1 µM and inactive = higher.

Columns and labels:
Experiment in all cases: DTP human tumour cell line panel, 48 h
SK-MEL-28 = tested on: SK-MEL-28
UACC-62 = tested on: UACC-62
NCI-H460 = tested on: NCI-H460
LOX IMVI = tested on: LOX IMVI
OVCAR-8 = tested on: OVCAR-8
SK-MEL-5 = tested on: SK-MEL-5
RXF 393 = tested on: RXF 393
SK-OV-3 = tested on: SK-OV-3
SF-539 = tested on: SF-539
A549 = tested on: A549
TK-10 = tested on: TK-10
OVCAR-3 = tested on: OVCAR-3
HT-29 = tested on: HT-29
A498 = tested on: A498
SR = tested on: SR

Measured: GI50

Cc1cn(C2CC(n3cncn3)C(C(C)O)O2)c(=O)[nH]c1=O (configuration not stated)
inactive: SK-MEL-28 > 100 µM | UACC-62 > 100 µM | NCI-H460 > 100 µM | LOX IMVI > 100 µM | OVCAR-8 > 100 µM | SK-MEL-5 > 100 µM | RXF 393 > 100 µM | SK-OV-3 > 100 µM | SF-539 > 100 µM | A549 > 100 µM | TK-10 > 100 µM | OVCAR-3 > 100 µM | HT-29 > 100 µM

COC1=CC(=O)C2C(C1=O)C(c1ccc(Cl)cc1)[C@@H]2C (some centres not stated)
inactive: SK-MEL-28 28.9 µM | UACC-62 24.7 µM | NCI-H460 30.1 µM | LOX IMVI 22.4 µM | OVCAR-8 20.6 µM | SK-MEL-5 19.5 µM | RXF 393 24.1 µM | SK-OV-3 > 100 µM | SF-539 22.8 µM | A549 34 µM | A498 58.9 µM | TK-10 38.7 µM | OVCAR-3 34.6 µM | HT-29 > 100 µM

C/C(CN1C(=O)c2ccccc2C1=O)=N\NS(C)(=O)=O
inactive: SK-MEL-28 > 100 µM | UACC-62 > 100 µM | NCI-H460 > 100 µM | OVCAR-8 > 100 µM | SK-MEL-5 > 100 µM | RXF 393 > 100 µM | SK-OV-3 > 100 µM | SF-539 > 100 µM | A549 > 100 µM | A498 > 100 µM | TK-10 > 100 µM | OVCAR-3 > 100 µM | HT-29 > 100 µM

O=C(O)CCNS(=O)(=O)c1ccc([N+](=O)[O-])cc1
inactive: SK-MEL-28 > 100 µM | UACC-62 > 100 µM | NCI-H460 > 100 µM | LOX IMVI > 100 µM | OVCAR-8 > 100 µM | SK-MEL-5 > 100 µM | RXF 393 > 100 µM | SK-OV-3 > 100 µM | SF-539 > 100 µM | A549 > 100 µM | A498 > 100 µM | TK-10 > 100 µM | OVCAR-3 > 100 µM | HT-29 > 100 µM

C=CCC1([C@H](C)[C@@H](OC(C)=O)c2cc(OC)c(OC)c(OC)c2)C[C@@H](OC)CCC1=O (some centres not stated)
inactive: SK-MEL-28 23.6 µM | UACC-62 16.1 µM | NCI-H460 17.7 µM | SR 22.3 µM | OVCAR-8 17 µM | SK-MEL-5 > 100 µM | RXF 393 12.9 µM | SK-OV-3 59.4 µM | SF-539 16.4 µM | A549 27.7 µM | TK-10 51.3 µM | OVCAR-3 20.7 µM | HT-29 14.1 µM

COC(=O)C1CC(C(=O)OC)c2nc3cc([N+](=O)[O-])ccc3nc21 (configuration not stated)
inactive: SK-MEL-28 > 77.3 µM | UACC-62 22.6 µM | NCI-H460 65.6 µM | LOX IMVI 22.3 µM | OVCAR-8 > 90.4 µM | SK-MEL-5 58.7 µM | RXF 393 31.6 µM | SK-OV-3 > 94 µM | SF-539 41 µM | A549 43.1 µM | A498 > 100 µM | TK-10 > 100 µM | OVCAR-3 33.1 µM | HT-29 51.3 µM

O=C(c1ccccc1)C(c1ccccc1)C1(O)C(=O)Nc2c(Cl)ccc(Cl)c21 (configuration not stated)
inactive: SK-MEL-28 18.7 µM | UACC-62 15.6 µM | NCI-H460 14.3 µM | LOX IMVI 11.8 µM | OVCAR-8 19.4 µM | SK-MEL-5 18.2 µM | RXF 393 19.5 µM | SK-OV-3 30.8 µM | SF-539 20.3 µM | A549 26.1 µM | A498 25.3 µM | TK-10 32.6 µM | OVCAR-3 17.4 µM | HT-29 19.9 µM

O=C(c1ccccc1)N1CCc2c([nH]c3ccccc23)C1
inactive: SK-MEL-28 24.8 µM | UACC-62 51.4 µM | NCI-H460 41.7 µM | SR 33.1 µM | LOX IMVI 88.1 µM | OVCAR-8 29.5 µM | SK-MEL-5 20.9 µM | SK-OV-3 85.3 µM | SF-539 76.9 µM | A549 50.4 µM | TK-10 44.3 µM | OVCAR-3 38 µM | HT-29 72.4 µM

Nc1ccc(C(=O)N/C(=C\c2cccc([N+](=O)[O-])c2)c2nc3c4c(ccc3[nH]2)C(=O)c2ccccc2C4=O)cc1
inactive: SK-MEL-28 30.3 µM | UACC-62 53.3 µM | NCI-H460 21.3 µM | LOX IMVI 15.1 µM | OVCAR-8 25 µM | SK-MEL-5 57.4 µM | RXF 393 10.1 µM | SK-OV-3 19.3 µM | SF-539 13.8 µM | A549 18.6 µM | A498 15.5 µM | TK-10 19.2 µM | OVCAR-3 12.7 µM | HT-29 62.5 µM

C=C(C)C1CCC2(C)CC1c1c(c(C)cc3c1[nH]c1ccccc13)O2 (configuration not stated)
inactive: SK-MEL-28 > 25 µM | UACC-62 > 25 µM | NCI-H460 > 25 µM | SR > 25 µM | LOX IMVI > 25 µM | OVCAR-8 > 25 µM | SK-MEL-5 > 25 µM | SK-OV-3 > 25 µM | SF-539 > 25 µM | A549 > 25 µM | OVCAR-3 > 25 µM | HT-29 > 25 µM

CCO/C=C\C12CCCC1NC(c1ccccc1)(c1ccccc1)O2 (configuration not stated)
inactive: SK-MEL-28 40.5 µM | UACC-62 21.7 µM | NCI-H460 48.8 µM | OVCAR-8 39.2 µM | SK-MEL-5 17.1 µM | RXF 393 31 µM | SK-OV-3 40.4 µM | SF-539 25.3 µM | A549 32.8 µM | A498 53.5 µM | TK-10 31.5 µM | OVCAR-3 27.9 µM | HT-29 23.2 µM
